Measurements reported in US6924279B2, “Crystalline 1-methylcarbapenem derivatives” (Sankyo Company, Limited, priority 1999, dated 2005).
Like-named read-outs stand apart in the source and are kept apart here.

Tests used:
[1] = tested on: S. aureus 535 (MRSA); assay: Antibiotic activity test, agar-plate dilution method; assay type: cell-based, Staphylococcus aureus
Description: (§1) The MIC (μg/ml), the lowest concentration of antibiotic which inhibits growth of the test bacterial strain, was determined by the agar-plate dilution method. The crystalline compounds obtained in Example 1, 2, 4 and 5 of this invention were evaluated against various bacterial strains by determining the MIC of each compound with respect to each strain.

[2] = tested on: Enterobacter cloacae 963; assay: as above; assay type: cell-based
Description: as §1

[3] = tested on: Staphylococcus aureus 209P; assay: as above; assay type: cell-based
Description: as §1

[4] = tested on: Klebisella pneumoniae 806; assay: as above; assay type: cell-based
Description: as §1

[5] = tested on: Serratia marcescens 1184; assay: as above; assay type: cell-based
Description: as §1

[6] = tested on: Pseudomonas aeruginosa 1001; assay: as above; assay type: cell-based
Description: as §1

[7] = tested on: Escherichia coli NIHJ; assay: as above; assay type: cell-based
Description: as §1

[8] = Stability test in desiccator at 60° C. in which silica gel was placed (HPLC remaining amount); assay type: physicochemical; details: desiccator at 60° C. with silica gel
Description: (§2) The crystalline compounds obtained in Example 1, 2, 4 and 5 were kept for about 2 months in a desiccator at 40° C. and 75% relative humidity and in a desiccator at 60° C. in which silica gel was placed, respectively. The non-crystalline powdered compound (lyophilized product) obtained according to the procedure described in U.S. Pat. No. 6,090,802 Example 72 and in Japanese Patent Application Publication No. Hei-11-071277, which is a reference sample, was kept under the same conditions described above. The remaining amount of the crystalline compounds and the non-crystalline powdered compound were determined after 7, 20, 21, 28, and 56 days by high pressure liquid chromatography on a L-Column ODS (4.6 mm Φ×150 mm, (trade mark) manufactured by Kagakuhinn kennsa kyoukai) eluting with 20 mM KH2PO4 (pH 7.0): CH3CN=96:4 at 1.0 ml/minute at 60° C. using an ultraviolet wave length of 300 nm. The remaining percentages of these compounds were calculated from the remaining amount of them and show in Tables 1-4.

[9] = tested on: K. pneumoniae 846; assay: Antibiotic activity test, agar-plate dilution method; assay type: cell-based, Klebisella pneumoniae
Description: as §1

[10] = tested on: E. coli 609; assay: as above; assay type: cell-based, Escherichia coli
Description: as §1

[11] = Stability test in desiccator at 40° C. and 75% relative humidity (HPLC remaining amount); assay type: physicochemical
Description: as §2

C[C@@H](O)[C@H]1C(=O)N2C(C(=O)O)=C(S[C@H]3C[C@@H](C(=O)N4CC[C@H](NC(=O)CNC(=N)N)C4)N(C)C3)[C@H](C)[C@H]12 [Example 4, (1R,5S,6S)-2-[(2S,4S)-2-[(3S)-3-(2-Guanidinoacetylamino)pyrrolidin-1-ylcarbonyl]-1-methylpyrrolidin-4-ylthio]-6-[(1R)-1-hydroxyethyl]-1-methyl-1-carbapen-2-em-3-carboxylic Acid]
Antibiotic activity (MIC) [1]: 1.5 µg/mL | Antibiotic activity (MIC) [2]: 0.05 µg/mL | Antibiotic activity (MIC) [3]: ≦0.01 μg/ml | Antibiotic activity (MIC) [4]: ≦0.01 μg/ml | Antibiotic activity (MIC) [5]: ≦0.01 μg/ml | Antibiotic activity (MIC) [6]: 0.2 µg/mL | Antibiotic activity (MIC) [7]: ≦0.01 μg/ml | Remaining percentage of compound ([8]; After 21 days): 100.4% | Remaining percentage of compound ([8]; After 56 days): 100.9% | Antibiotic activity (MIC) [9]: ≦0.01 μg/ml | Antibiotic activity (MIC) [10]: 0.02 µg/mL | Remaining percentage of compound ([11]; After 20 days): 99.4% | Remaining percentage of compound ([11]; After 56 days): 94.3%

CCO.C[C@@H](O)[C@H]1C(=O)N2C(C(=O)O)=C(S[C@H]3C[C@@H](C(=O)N4CC[C@H](NC(=O)CNC(=N)N)C4)N(C)C3)[C@H](C)[C@H]12.C[C@@H](O)[C@H]1C(=O)N2C(C(=O)O)=C(S[C@H]3C[C@@H](C(=O)N4CC[C@H](NC(=O)CNC(=N)N)C4)N(C)C3)[C@H](C)[C@H]12 [Example 2, (1R,5S,6S)-2-[(2S,4S)-2-[(3S)-3-(2-Guanidinoacetylamino)pyrrolidin-1-ylcarbonyl]-1-methylpyrrolidin-4-ylthio]-6-[(1R)-1-hydroxyethyl]-1-methyl-1-carbapen-2-em-3-carboxylic Acid.1/2 Ethanol]
Antibiotic activity (MIC) [1]: 1.5 µg/mL | Antibiotic activity (MIC) [2]: 0.05 µg/mL | Antibiotic activity (MIC) [3]: ≦0.01 μg/ml | Antibiotic activity (MIC) [4]: ≦0.01 μg/ml | Antibiotic activity (MIC) [5]: ≦0.01 μg/ml | Antibiotic activity (MIC) [6]: 0.2 µg/mL | Antibiotic activity (MIC) [7]: ≦0.01 μg/ml | Remaining percentage of compound ([8]; After 21 days): 100.1% | Remaining percentage of compound ([8]; After 56 days): 96.8% | Antibiotic activity (MIC) [9]: ≦0.01 μg/ml | Antibiotic activity (MIC) [10]: ≦0.01 μg/ml | Remaining percentage of compound ([11]; After 20 days): 95.8% | Remaining percentage of compound ([11]; After 56 days): 87.3%

CCO.C[C@@H](O)[C@H]1C(=O)N2C(C(=O)O)=C(S[C@H]3C[C@@H](C(=O)N4CC[C@H](NC(=O)CNC(=N)N)C4)N(C)C3)[C@H](C)[C@H]12.O=C(O)O [Example 1, (1R,5S,6S)-2-[(2S,4S)-2-[(3S)-3-(2-Guanidinoacetylamino)pyrrolidin-1-ylcarbonyl]-1-methylpyrrolidin-4-ylthio]-6-[(1R)-1-hydroxyethyl]-1-methyl-1-carbapen-2-em-3-carboxylic acid.1/2 Carbonate.1/2 Ethanol]
Antibiotic activity (MIC) [1]: 1.5 µg/mL | Antibiotic activity (MIC) [2]: 0.05 µg/mL | Antibiotic activity (MIC) [3]: ≦0.01 μg/ml | Antibiotic activity (MIC) [4]: ≦0.01 μg/ml | Antibiotic activity (MIC) [5]: ≦0.01 μg/ml | Antibiotic activity (MIC) [6]: 0.2 µg/mL | Antibiotic activity (MIC) [7]: ≦0.01 μg/ml | Remaining percentage of compound ([8]; After 21 days): 98.5% | Remaining percentage of compound ([8]; After 56 days): 96.4% | Antibiotic activity (MIC) [9]: ≦0.01 μg/ml | Antibiotic activity (MIC) [10]: 0.02 µg/mL | Remaining percentage of compound ([11]; After 20 days): 98.5% | Remaining percentage of compound ([11]; After 56 days): 92.9%

C[C@@H](O)[C@H]1C(=O)N2C(C(=O)O)=C(S[C@H]3C[C@@H](C(=O)N4CC[C@H](NC(=O)CNC(=N)N)C4)N(C)C3)[C@H](C)[C@H]12 [Example 5, (1R,5S,6S)-2-[(2S,4S)-2-[(3S)-3-(2-Guanidinoacetylamino)pyrrolidin-1-ylcarbonyl]-1-methylpyrrolidin-4-ylthio]-6-[(1R)-1-hydroxyethyl]-1-methyl-1-carbapen-2-em-3-carboxylate.1/4 Ethanol.3/2 Hydrate]
Antibiotic activity (MIC) ([6]; Hydrate): 0.39 µg/mL | Remaining percentage of compound ([8]; After 7 days): 98.3% | Remaining percentage of compound ([8]; After 28 days): 97.0% | Remaining percentage of compound ([8]; After 56 days, Hydrate): 97.6% | Antibiotic activity (MIC) ([10]; Hydrate): ≦0.01 μg/ml | Remaining percentage of compound ([11]; After 7 days): 98.9% | Remaining percentage of compound ([11]; After 28 days): 94.6% | Remaining percentage of compound ([11]; After 56 days, Hydrate): 83.2%
